Reference: US6703404B2, “Tert -butyl-(7-methyl-imidazol [1,2-a]pyridin-3-yl)-amine derivatives” (Gruenenthal GmbH, priority 1999, dated 2004)
Counter-ions that a name gives are not always drawn.

What was measured:
NO synthase [1] = target: T1, NO synthase (Rattus norvegicus, UniProt P29476); assay: HTS-NOS assay (labelled arginine, filter plate); type: biochemical; set-up: from tissue; host or cells: rat cerebellum (20,000 g supernatant of homogenate); conditions: 10 μm test substance; enzyme from rat cerebellum
Procedure: This assay enabled the percentage inhibition of NO synthase to be determined by measuring the NOS activity on the action of the active ingredient. NO synthase was mixed with radioactively labelled arginine and the active ingredient under suitable conditions. After terminating the NO-forming reaction at a predetermined time, the amount of unreacted arginine was determined directly or indirectly. Comparison of this amount with the amount of arginine remaining from a mixture of NOS and arginine without the addition of active ingredient but under conditions which were otherwise the same gave the % inhibition of NO synthase by the active ingredient tested. This assay was performed as follows:
(a) Incubation of NO synthase, with labelled arginine as a substrate, in a reaction vessel.
(b) Separation of the labelled arginine from any labelled citrulline which was formed as a product of the enzymatic reaction at a time at which the concentration of citrulline was increasing.
(c) Measuring the amount of arginine separated in each case.
Separation was effected through a filter plate membrane.
This NOS assay was particularly suitable for “High Throughput Screening” (HTS) on microtitration plates (MTPs).
In this HTS-NOS assay, radioactive arginine was used as the substrate. The assay volume can be selected within the range from […] depending on the type of microtitration plate (MTP). Cofactors and coenzymes were added depending on the enzyme source used. Batches were incubated in this microtitration plate (assay MTP) according to step (a) at room temperature, for between 5 and 60 minutes depending on the enzyme activity (units) employed. At the end of the incubation (step (a)) the plate was placed in a cell harvester which was fitted with an MTP comprising a cation exchange membrane filter base (filter MTP). All the batches from the assay MTP were transferred to this filter MTP and were filtered off under suction through a cation exchange filter plate comprising a paper filter containing phosphate groups. […] By means of this procedure, the remaining arginine substrate was bound to the cation exchanger, whilst the enzymatically formed radioactive citrulline was quantitatively removed by washing. After drying the filter MTP and adding a scintillation liquid, the bound arginine was counted in a scintillation counter. An uninhibited NOS reaction was manifested by a low level of radioactivity. An inhibited enzyme reaction meant that the radioactive arginine had not reacted, i.e. the filter contained a high level of radioactivity. […]
The contents of the assay MTP were subsequently transferred by means of a 96-well cell harvester into a 96-well cation exchanger MTP (filter MTP) and was filitered under suction. […] After a holding time of 1 hour, the plate was measured in a βcounter. […]

NO synthase [2] = target: T1, NO synthase; assay: Citrulline assay (Bredt and Snyder); type: biochemical
Procedure: This assay was performed as described by D. S. Bredt and S. H. Snyder (Proc. Natl. Acad. Sci. USA (1990), 87, 682-85).

Molecule	HTS-NOS assay: %-inhibition (10 μm) (NO synthase [1]) [%]	IC50 (NO synthase [2]) [nM]	other results
Cc1cc(C)n2c(NC(C)(C)C)c(C3CCCCC3)nc2c1 [Example 5, tert-butyl-(2-cyclohexyl-5,7-dimethyl-imidazo[1,2-a]pyridin-3-yl)-amine]			inhibition at 10 µM (NO synthase [1]): 63%
Cc1cc(C)n2c(NC(C)(C)C)c(-c3ccc([N+](=O)[O-])o3)nc2c1 [Example 9]	59		
Cc1cc(C)n2c(NC(C)(C)C)c(-c3ccco3)nc2c1 [Example 18, tert-butyl-(2-furan-2-yl-5,7-dimethyl-imidazo[1,2-a]pyridin-3-yl)amine hydrochloride]		2800	
Cc1cc(C)n2c(NC(C)(C)C)c(C)nc2c1 [Example 20, tert-butyl-(2,5,7-trimethyl[1,2-a]pyridin-3-yl)amine hydrochloride]		9200	
[5-(3-tert-butyl-7-methyl-imidazo[1,2-a]pyridin-2-yl)-furan-2-yl]-methanol [Example 10]	52		

Further lines, with some results ahead:

HTS-NOS assay: %-inhibition (10 μm) (NO synthase [1]) [%]	IC50 (NO synthase [2]) [nM]	Molecule	other results
61		Cc1ccn2c(NC(C)(C)C)c(-c3ccc(C(=O)O)s3)nc2c1 [Example 17, 5-(3-tert-butylamino-7-methyl-imidazo[1,2-a]pyridin-2-yl)-thiophen-12-carboxylic acid]	
	2400	Cc1ccn2c(NC(C)(C)C)c(-c3ccccc3)nc2c1 [Example 19, tert-butyl-(7-methyl-2-phenylimidazo[1,2-a]pyridin-3-yl)amine hydrochloride]	
